The subject of one test is SD rats. Briefly: Hypocholesterolemic and hypolipidemic effects in SD rats given hypercholesterolemic food. As to conditions: male SD rats, orally in 0.5% CMC, then hypercholesterolemic food, blood at 9:00 of the next day; for IG level: control 163 ± 18; for IC level: control 167 ± 13; for NEFA level: control 615 ± 80. In kind it is in vivo. An excerpt: Male, six-weeks old SD rats (five rats per group) were left to take milled diet and water ad libitum and were acclimatized for 1 week.
At 9:00 on the first day of the experiment (Day 0), blood sampling was done from tail vein. The rats were divided into some groups according to body weight, triglyceride (TG), non-esterified fatty acid (NEFA) and total cholesterol (TC) levels to minimize differences of the parameters among the groups. At 17:00 of the day, the compound of the present invention dissolved in 0.5% aqueous solution of carboxymethylcellulose (CMC) was orally administered, and thereafter, with hypercholesterolemic food (5.5% peanut oil, 1.5% cholesterol and 0.5% cholic acid were mixed with milled CRF-1 diet, Charles River Inc.) was given to the rats.
At 9:00 of the next day, blood sampling was done from tail vein. The lipid levels in blood (TG, NEFA and TC levels) after administration of the compounds of the present invention were measured. There was no significant difference of the food intake between the control group (provided only 0.5% CMC) and the group treated with the compounds of the present invention.

The next test addresses T1, human PPARγ (Homo sapiens, UniProt P37231).
T1 construct: expressed in transfected cells; host or cells: CV-1 cells
T1 sequence (P37231 204-505): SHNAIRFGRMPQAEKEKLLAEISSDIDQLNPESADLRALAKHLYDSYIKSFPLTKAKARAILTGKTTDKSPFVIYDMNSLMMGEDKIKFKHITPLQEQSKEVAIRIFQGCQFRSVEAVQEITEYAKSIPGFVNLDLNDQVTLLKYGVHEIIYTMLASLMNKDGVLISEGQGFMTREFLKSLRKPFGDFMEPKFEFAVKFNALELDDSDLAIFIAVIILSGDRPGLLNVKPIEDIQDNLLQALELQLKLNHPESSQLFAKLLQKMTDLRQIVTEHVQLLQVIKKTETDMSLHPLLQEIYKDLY
Briefly: Luciferase assay using human PPARγ (Gal4-PPARγ ligand binding domain chimeric receptor, CV-1 host cells). To be noted: PPARγ agonistic activity; compound 10 μM; luciferase activity of troglitazone (10 μM) defined as 1.0; CV-1 cells. The test is classed as cell-based.

Another test has as its target T2, human PPARα (Homo sapiens, UniProt Q07869).
T2 construct: expressed in transfected cells; host or cells: CV-1 cells
T2 sequence (Q07869 167-468): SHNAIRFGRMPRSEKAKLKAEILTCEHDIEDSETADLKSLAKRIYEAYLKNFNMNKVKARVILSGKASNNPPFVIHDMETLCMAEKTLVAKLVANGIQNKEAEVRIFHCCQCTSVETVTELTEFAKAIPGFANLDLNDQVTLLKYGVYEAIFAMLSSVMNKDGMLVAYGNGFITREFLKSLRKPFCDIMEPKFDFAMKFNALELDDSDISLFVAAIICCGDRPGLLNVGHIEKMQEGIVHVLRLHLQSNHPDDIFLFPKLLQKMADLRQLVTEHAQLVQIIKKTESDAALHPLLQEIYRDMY
Nature of the test: Luciferase assay using human PPARα (Gal4-PPARα ligand binding domain chimeric receptor, CV-1 host cells). In kind it is cell-based. As to conditions: PPARα agonistic activity; compound 10 μM; luciferase activity of carbacyclin (10 μM) defined as 1.0; CV-1 cells.

Another test deals with KKAy/Ta mice. Nature of the test: Hypoglycemic and hypolipidemic effects in KKAy/Ta mice. In kind it is in vivo. As to conditions: male KKAy/Ta mice, food mixture containing 0.03% (w/w) compound (43-47 mg/kg/day conversion value), 4 days; for TG level: control 439 ± 234; for blood sugar level: control 520 ± 147. The source says: Male, 7-weeks old KKAy/Ta mice weighed from 35 to 40 g (five mice per group) were pre-breaded for approximately one week and acclimatized for three days on milled diet. On the first day of the experiment (Day 0), mice were divided into some groups according to weight, plasma glucose and triglyceride (TG) levels to minimize the differences among groups. […] At 13:00 of the third day, blood samples were collected to measure glucose and TG levels. Additionally, there was no significant difference in the food intake between control group (milled diet only) and compounds-treated group (milled diet containing 0.03% compounds).

`Cc1ccc(-c2nc(Cc3ccc(/C=C/CSCC(=O)O)o3)c(C)o2)cc1` [Example 3(1), 2-((2E)-3-(5-(5-methyl-2-(4-methylphenyl)oxazol-4-ylmethyl)furan-2-yl)-2-propenylthio)acetic acid]: in the test on SD rats, the IG level was 92 ± 26 mg/dL, the IC level turned out to be 107 ± 4 mg/dL and the NEFA level amounted to 394 ± 49 µEq/l. Besides, the “Relative Activity to a positive control compound (troglitazone = 1)” value (shortened to “Relative Activity … (troglitazone = 1)”) at human PPARγ worked out at 1.1. Also, the “Relative Activity to a positive control compound (carbacyclin = 1)” value (“Relative Activity … (carbacyclin = 1)” below) on human PPARα amounted to 1.5. In addition, in the test with KKAy/Ta mice, the TG level was found to be 44 ± 11 mg/dL and the blood sugar level is 253 ± 27 mg/dL.
As to `Cc1oc(-c2ccc3c(c2)OCO3)nc1Cc1ccc(/C=C/CSCC(=O)O)o1` [Example 3(2), 2-((2E) -3-(5-(5-methyl-2-(1,3-dioxaindan-5-yl)oxazol-4-ylmethyl)furan-2-yl)-2-propenylthio)acetic acid], in the test on SD rats, the IG level came out at 62 ± 7 mg/dL, the IC level amounted to 86 ± 6 mg/dL and the NEFA level worked out at 145 ± 18 µEq/l. Also, at human PPARγ, the “Relative Activity … (troglitazone = 1)” value is 2.3. For the same compound, the “Relative Activity … (carbacyclin = 1)” value at human PPARα amounted to 3.1. In the test on KKAy/Ta mice, the TG level worked out at 45 ± 12 mg/dL and the blood sugar level stood at 243 ± 37 mg/dL.
Consider `CCc1ccc(-c2nc(Cc3ccc(/C=C/CSCC(=O)O)o3)c(C)o2)cc1` [Example 3(3), 2-((2E)-3-(5-(5-methyl-2-(4-ethylphenyl)oxazol-4-ylmethyl)furan-2-yl)-2-propenylthio)acetic acid], for which, in the test with SD rats, the IG level was 79 ± 12 mg/dL, the IC level stood at 91 ± 4 mg/dL and the NEFA level was 213 ± 31 µEq/l. For the same compound, the “Relative Activity … (troglitazone = 1)” value at human PPARγ came to 2.2. Further, the “Relative Activity … (carbacyclin = 1)” value at human PPARα turned out to be 1.8. Moreover, in the test on KKAy/Ta mice, the TG level was found to be 31 ± 15 mg/dL and the blood sugar level was found to be 234 ± 31 mg/dL.
Take `Cc1oc(-c2ccccc2)nc1Cc1ccc(/C=C/CSCC(=O)O)o1` [Example 3, 2-((2E)-3-(5-(5-methyl-2-phenyloxazol-4-ylmethyl)furan-2-yl)-2-propenylthio)acetic acid]: in the test on SD rats, the IG level came out at 73 ± 7 mg/dL, the IC level turned out to be 87 ± 5 mg/dL and the NEFA level was found to be 207 ± 25 µEq/l. Moreover, at human PPARγ, the “Relative Activity … (troglitazone = 1)” value is on record as 2.3. In addition, the “Relative Activity … (carbacyclin = 1)” value at human PPARα worked out at 2.6. Further, in the test on KKAy/Ta mice, the TG level was 43 ± 12 mg/dL and the blood sugar level worked out at 260 ± 37 mg/dL.

The values are drawn from US6821994B2, “Carboxylic acid derivative and a pharmaceutical composition containing the derivative as active ingredient” (Ono Pharmaceutical Co., Ltd., priority 1998, dated 2004).
